From article PMC6445163, “Design, synthesis, and evaluation of novel 2-phenylpropionic acid derivatives as dual COX inhibitory-antibacterial agents” (Journal of Enzyme Inhibition and Medicinal Chemistry, 2017)
Converted amounts (≈) assume the structure as drawn.

Assays:
COX-1 = biological target: T1, COX-1 (Ovis aries, UniProt P05979); assay: fluorometric COX-1 inhibitor screening kit assay; type: biochemical; settings: for SI (selectivity index): IC50 (COX-1)/IC50 (COX-2); for IC50: fluorometric kit, 25 °C; for Selectivity: isoform preferred according to SI
T1 construct: purchased Biovision K548-100
T1 sequence (P05979 25-600): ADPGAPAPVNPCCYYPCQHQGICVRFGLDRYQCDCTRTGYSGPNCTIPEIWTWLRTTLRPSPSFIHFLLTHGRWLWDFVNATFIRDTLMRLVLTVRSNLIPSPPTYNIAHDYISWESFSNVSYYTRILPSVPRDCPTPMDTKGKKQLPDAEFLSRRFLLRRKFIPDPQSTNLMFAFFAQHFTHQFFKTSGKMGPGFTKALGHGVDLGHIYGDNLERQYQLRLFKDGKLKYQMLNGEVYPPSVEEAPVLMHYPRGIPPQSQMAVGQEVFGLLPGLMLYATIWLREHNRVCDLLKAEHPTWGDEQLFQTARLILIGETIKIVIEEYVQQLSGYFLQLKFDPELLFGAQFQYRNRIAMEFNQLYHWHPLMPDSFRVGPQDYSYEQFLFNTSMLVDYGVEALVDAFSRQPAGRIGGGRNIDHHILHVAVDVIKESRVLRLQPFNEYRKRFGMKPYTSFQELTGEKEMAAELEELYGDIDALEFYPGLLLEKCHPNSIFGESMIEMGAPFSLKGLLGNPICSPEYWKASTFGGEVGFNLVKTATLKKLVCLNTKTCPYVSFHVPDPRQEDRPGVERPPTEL
Protocol: (§1) Inhibitory potency of the compounds against COX-1 and COX-2 enzymes was determined using fluorometric COX-1 and COX-2 inhibitor screening kits (Biovision, Zurich, Switzerland). Experimental protocol was followed as described in the guides of the supplier[47]^,[48]. All of the pipettings in the assay were performed by Biotek Precision robotic system (BioTek Instruments, Inc., Winooski, VT). […] Appropriate two points (T1 and T2) in the linear range of the plot were chosen, and the corresponding fluorescence values (RFU1 and RFU2) were obtained. The slope for all samples, including enzyme control (EC), by dividing the net ΔRFU (RFU2–RFU1) values by the time ΔT (T2–T1) were calculated by using following equation: % Relative inhibition=(Slope of EC-Slope of S/Slope of EC)×100
(§2) This initial in vitro assay was done with two concentrations (10^−3 and 10^−4 M) for all compounds. […] The IC50 value was calculated from the plots of enzyme activity against concentrations by applying regression analyses on GraphPad Prism Version 5 (GraphPad Software, La Jolla, CA).
(§3) Selectivity indexes (SI) were expressed as IC50 (COX-1)/IC50 (COX-2). Selectivity toward COX-2 decreases as the corresponding SI decreases while selectivity toward COX-1 isoform increases as the corresponding SI decreases.

[1] = test system: Escherichia coli (ATCC 35218); assay: broth microdilution MIC (CLSI M07-A9), resazurin; type: cell-based; settings: ATCC35218, 24 h, read-out: MIC Ec-1
Protocol: (§4) Microbiological studies were performed according to following guides: CLSI reference […]-A9 broth microdilution method[49] for bacterial strains and EUCAST definitive (EDef 7.1) method[50] for Candida species. Synthesized compounds were tested for their in vitro growth inhibitory activity against Staphylococcus aureus (ATCC 25923), Enterococcus faecalis (ATCC 29212), Listeria monocytogenes (ATCC 1911), Klebsiella pneumoniae (NCTC 9633), Escherichia coli (ATCC 35218), E. coli (ATCC 25922) Candida albicans (ATCC 24433) Candida krusei (ATCC 6258) and Candida parapsilosis (ATCC 22019). Chloramphenicol and ketoconazole were used as control drugs. The cultures were obtained from the Mueller-Hinton broth (Difco) for the bacterial strains after overnight incubation at 37 °C. The yeasts were maintained in Roswell Park Memorial Institute (RPMI) after overnight incubation at 37 °C. […] Testing was carried out in Mueller-Hinton broth and RPMI at pH =7, and the two-fold serial dilutions technique was applied. The last well on the microplates containing only inoculated broth was kept as controls and the last well with no growth of microorganism was recorded to represent the minimum inhibitory concentration (MIC) expressed in μg/mL. For both the antibacterial and antifungal assays, the compounds were dissolved in DMSO. […] The completed plates were incubated for 24 h. At the end of the incubation, resazurin (20 μg/mL) was added into each well and plates were incubated for 2 h. MIC values were determined using a microplate reader at […]. Synthesized compounds (6a-6m) were evaluated for antimicrobial activity against various microorganisms such as Staphylococcus aureus (ATCC 25923), Enterococcus faecalis (ATCC 29212), Listeria monocytogenes (ATCC 1911), Klebsiella pneumoniae (NCTC 9633), Escherichia coli (ATCC 35218), E. coli (ATCC 25922)Candida albicans (ATCC 24433) Candida krusei (ATCC 6258) and Candida parapsilosis (ATCC 22019). […] Chloramphenicol and ketoconazole were used as standard drugs in the activity test. […] Besides, the compounds 6d, 6h, 6l and 6m indicated stronger antibacterial activity than the other compounds in the series.

[2] = test system: Enterococcus faecalis (ATCC 29212); assay: broth microdilution MIC (CLSI M07-A9), resazurin; type: cell-based; settings: ATCC29212, 24 h
Protocol: as §4

[3] = test system: Escherichia coli (ATCC 25922); assay: broth microdilution MIC (CLSI M07-A9), resazurin; type: cell-based; settings: ATCC25922, 24 h, read-out: MIC Ec-2
Protocol: as §4

[4] = test system: Klebsiella pneumoniae (NCTC 9633); assay: broth microdilution MIC (CLSI M07-A9), resazurin; type: cell-based; settings: 24 h
Protocol: as §4

[5] = test system: Listeria monocytogenes (ATCC 1911); assay: broth microdilution MIC (CLSI M07-A9), resazurin; type: cell-based; settings: ATCC1911, 24 h
Protocol: as §4

[6] = test system: Staphylococcus aureus (ATCC 25923); assay: broth microdilution MIC (CLSI M07-A9), resazurin; type: cell-based; settings: ATCC25923, 24 h
Protocol: as §4

COX-2 = biological target: T2, COX-2 (Homo sapiens, UniProt P35354); assay: fluorometric COX-2 inhibitor screening kit assay; type: biochemical; settings: 25 °C
T2 construct: purchased Biovision K547-100
T2 sequence (P35354 18-604): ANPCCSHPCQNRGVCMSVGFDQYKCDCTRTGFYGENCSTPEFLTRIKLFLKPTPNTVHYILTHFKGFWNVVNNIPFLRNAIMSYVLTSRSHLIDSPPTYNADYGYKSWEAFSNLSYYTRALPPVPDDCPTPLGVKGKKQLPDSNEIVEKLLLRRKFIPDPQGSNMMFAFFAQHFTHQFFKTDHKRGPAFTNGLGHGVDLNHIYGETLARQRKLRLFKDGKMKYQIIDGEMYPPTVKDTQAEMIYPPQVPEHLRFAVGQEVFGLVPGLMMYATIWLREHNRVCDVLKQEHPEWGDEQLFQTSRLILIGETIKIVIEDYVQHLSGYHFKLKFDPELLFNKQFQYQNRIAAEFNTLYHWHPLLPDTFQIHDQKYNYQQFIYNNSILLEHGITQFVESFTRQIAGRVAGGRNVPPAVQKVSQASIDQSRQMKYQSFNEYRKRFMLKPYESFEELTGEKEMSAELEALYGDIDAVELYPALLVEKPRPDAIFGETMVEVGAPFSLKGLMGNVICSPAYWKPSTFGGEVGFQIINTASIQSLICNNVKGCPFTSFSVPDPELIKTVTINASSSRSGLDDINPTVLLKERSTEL
Protocol: as §1, §2, §3

[7] = test system: Candida krusei (ATCC 6258); assay: broth dilution MIC (EUCAST EDef 7.1), resazurin; type: cell-based; settings: Pichia kudriavzevii, ATCC6258, 24 h
Protocol: as §4

[8] = test system: Candida albicans (ATCC 24433); assay: broth dilution MIC (EUCAST EDef 7.1), resazurin; type: cell-based; settings: ATCC24433, 24 h
Protocol: as §4

[9] = test system: Candida parapsilosis (ATCC 22019); assay: broth dilution MIC (EUCAST EDef 7.1), resazurin; type: cell-based; settings: ATCC22019, 24 h
Protocol: as §4

SMILES	SI (selectivity index) (COX-1)	IC50 (COX-1) [µM]	Selectivity (COX-1)	MIC [1] [µg/mL]	MIC [2] [µg/mL]	MIC [3] [µg/mL]	MIC Kp [4] [µg/mL]	MIC [5] [µg/mL]	MIC [6] [µg/mL]	IC50 (COX-2) [µM]	MIC [7] [µg/mL]	MIC [8] [µg/mL]	MIC [9] [µg/mL]	melting point [°C]
CC(C(=O)O)c1ccc(CSc2nc3ccccc3s2)cc1 (stereo not drawn) [Compound 6f, 2-(4-((Benzo[d]thiazol-2-ylthio)methyl)phenyl)propanoic acid]	0.54	2.36	COX-1	6.25 (≈ 19 µM)	12.5 (≈ 37.9 µM)	12.5 (≈ 37.9 µM)	12.5 (≈ 37.9 µM)	12.5 (≈ 37.9 µM)	12.5 (≈ 37.9 µM)	4.41	100 (≈ 304 µM)	100 (≈ 304 µM)	50 (≈ 152 µM)	128.2 to 130.8
CC(C(=O)O)c1ccc(CSc2nc3cc(Cl)ccc3s2)cc1 (stereo not drawn) [Compound 6g, 2-(4-(((5-Chlorobenzo[d]thiazol-2-yl)thio)methyl)phenyl)propanoic acid]	0.58	2.46	COX-1	6.25 (≈ 17.2 µM)	12.5 (≈ 34.4 µM)	12.5 (≈ 34.4 µM)	12.5 (≈ 34.4 µM)	12.5 (≈ 34.4 µM)	12.5 (≈ 34.4 µM)	4.25	100 (≈ 275 µM)	100 (≈ 275 µM)	50 (≈ 137 µM)	162.3 to 164.7
CC(=O)N1CCN(c2ccc(OCC3COC(Cn4ccnc4)(c4ccc(Cl)cc4Cl)O3)cc2)CC1 (stereo not drawn) [Ketoconazole, reference compound]	–	–	–	–	–	–	–	–	–	–	0.78 (≈ 1.47 µM)	0.78 (≈ 1.47 µM)	0.78 (≈ 1.47 µM)	–

The remaining lines, values ahead:

SI (selectivity index) (COX-1)	IC50 (COX-1) [µM]	Selectivity (COX-1)	MIC [1] [µg/mL]	MIC [2] [µg/mL]	MIC [3] [µg/mL]	MIC Kp [4] [µg/mL]	MIC [5] [µg/mL]	MIC [6] [µg/mL]	IC50 (COX-2) [µM]	MIC [7] [µg/mL]	MIC [8] [µg/mL]	MIC [9] [µg/mL]	melting point [°C]	SMILES
0.62	24.6	COX-1	6.25 (≈ 22.5 µM)	6.25 (≈ 22.5 µM)	12.5 (≈ 45.1 µM)	6.25 (≈ 22.5 µM)	12.5 (≈ 45.1 µM)	12.5 (≈ 45.1 µM)	39.9	50 (≈ 180 µM)	50 (≈ 180 µM)	50 (≈ 180 µM)	–	CC(C(=O)O)c1ccc(CSc2nncn2C)cc1 (stereo not drawn) [Compound 6d, 2-(4-(((4-Methyl-4 H-1,2,4-triazol-3-yl)thio)methyl)phenyl)propanoic acid]
0.60	21.8	COX-1	6.25 (≈ 22.5 µM)	12.5 (≈ 44.9 µM)	12.5 (≈ 44.9 µM)	6.25 (≈ 22.5 µM)	12.5 (≈ 44.9 µM)	12.5 (≈ 44.9 µM)	36.3	50 (≈ 180 µM)	50 (≈ 180 µM)	50 (≈ 180 µM)	–	CC(C(=O)O)c1ccc(CSc2nnnn2C)cc1 (stereo not drawn) [Compound 6e, 2-(4-(((1-Methyl-1 H-tetrazol-5-yl)thio)methyl)phenyl)propanoic acid]
